# What was measured:
# Assay in all cases: relative viability (nuclei count vs DMSO), 5 days (fraction); higher = more cells survive
# FG-4592 + Vorinostat = compound: Cc1nc(C(=O)NCC(=O)O)c(O)c2ccc(Oc3ccccc3)cc12 [FG-4592] + O=C(CCCCCCC(=O)Nc1ccccc1)NO [Vorinostat] (partner 1 µM)
# Method in brief: (§1)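 Lung cancer cell lines in 1536-well plates got either a single drug or a fixed anchor-drug dose together with five library-drug doses (not always all listed) in √10 steps, by pin tool, on the day after seeding. Nuclei were counted after 5 days, and relative viability is the treated-to-vehicle ratio of nuclei counts. Values are medians of duplicate plates.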
# FG-4592 + Dasatinib = compound: Cc1nc(C(=O)NCC(=O)O)c(O)c2ccc(Oc3ccccc3)cc12 [FG-4592] + Cc1nc(Nc2ncc(C(=O)Nc3c(C)cccc3Cl)s2)cc(N2CCN(CCO)CC2)n1 [Dasatinib] (partner 0.075 µM)
# Method in brief: as §1
# IU1-47 + Vorinostat = compound: CC1=CC(=C(N1C2=CC=C(C=C2)Cl)C)C(=O)CN3CCCCC3 [IU1-47] + O=C(CCCCCCC(=O)Nc1ccccc1)NO [Vorinostat] (partner 1 µM)
# Method in brief: as §1
# FG-4592 + Decitabine = compound: Cc1nc(C(=O)NCC(=O)O)c(O)c2ccc(Oc3ccccc3)cc12 [FG-4592] + Nc1ncn([C@H]2C[C@H](O)[C@@H](CO)O2)c(=O)n1 [Decitabine] (partner 2 µM)
# Method in brief: as §1
Cell Line,relative viability (FG-4592 + Vorinostat; first compound 0.08 µM),relative viability (FG-4592 + Vorinostat; first compound 0.253 µM),relative viability (FG-4592 + Vorinostat; first compound 0.8 µM),relative viability (FG-4592 + Vorinostat; first compound 2.53 µM),relative viability (FG-4592 + Vorinostat; first compound 8 µM),relative viability (FG-4592 + Dasatinib; first compound 0.08 µM),relative viability (FG-4592 + Dasatinib; first compound 0.253 µM),relative viability (FG-4592 + Dasatinib; first compound 0.8 µM),relative viability (FG-4592 + Dasatinib; first compound 2.53 µM),relative viability (FG-4592 + Dasatinib; first compound 8 µM),relative viability (IU1-47 + Vorinostat; first compound 0.08 µM),relative viability (IU1-47 + Vorinostat; first compound 0.253 µM),relative viability (IU1-47 + Vorinostat; first compound 0.8 µM),relative viability (IU1-47 + Vorinostat; first compound 2.53 µM),relative viability (IU1-47 + Vorinostat; first compound 8 µM),relative viability (FG-4592 + Decitabine; first compound 0.08 µM),relative viability (FG-4592 + Decitabine; first compound 0.253 µM),relative viability (FG-4592 + Decitabine; first compound 0.8 µM),relative viability (FG-4592 + Decitabine; first compound 2.53 µM),relative viability (FG-4592 + Decitabine; first compound 8 µM)
NCI-H2342,0.701,0.721,0.697,0.681,0.651,0.312,0.281,0.316,0.341,0.311,0.833,0.836,0.975,1.03,0.825,0.841,0.793,0.662,0.772,0.608
SK-MES-1,1.13,0.969,1.02,0.947,1.02,0.534,0.434,0.351,0.365,0.34,1.09,1.15,1.26,1.24,1.03,0.369,0.424,0.419,0.414,0.385
HCC-366,0.263,0.269,0.185,0.308,0.33,0.624,0.607,0.339,0.573,0.414,0.298,0.283,0.378,0.453,0.342,0.359,0.347,0.324,0.383,0.308
201T,0.905,0.933,0.807,0.972,0.993,0.549,0.566,0.616,0.569,0.646,1.08,1.03,1.07,0.356,0.915,0.865,0.839,0.842,0.859,0.878
HCC-827,0.85,0.823,0.927,0.842,0.81,0.264,0.379,0.386,0.259,0.282,0.966,1.08,1.02,0.879,0.558,0.376,0.28,0.319,0.334,0.328
NCI-H647,0.35,0.366,0.551,0.486,0.237,0.186,0.202,0.145,0.172,0.183,0.519,0.587,0.691,0.917,0.726,0.347,0.326,0.341,0.372,0.227
NCI-H2023,0.631,0.514,0.572,0.553,0.543,0.612,0.529,0.54,0.522,0.377,0.699,0.767,0.668,0.497,0.748,0.231,0.209,0.222,0.243,0.203
NCI-H520,0.693,0.709,0.635,0.702,0.673,0.171,0.206,0.133,0.157,0.157,0.783,0.671,0.681,0.685,0.589,0.454,0.443,0.493,0.577,0.434
RERF-LC-KJ,0.672,0.629,0.705,0.486,0.701,0.91,0.701,0.739,0.836,0.678,0.743,0.749,0.749,0.604,0.605,0.811,0.697,0.76,0.81,0.667
A-427,0.84,0.85,0.845,0.806,0.78,0.649,0.611,0.741,0.725,0.717,0.894,0.847,0.841,0.883,0.836,0.535,0.558,0.503,0.558,0.567
NCI-H441,0.692,0.809,0.855,0.694,0.696,0.56,0.547,0.524,0.55,0.555,0.947,0.884,0.764,0.813,0.595,0.235,0.255,0.234,0.232,0.25
NCI-H1792,,,,,,0.871,0.72,0.846,0.668,0.748,,,,,,0.508,0.485,,0.525,0.484
SK-LU-1,0.862,0.505,0.799,0.845,0.811,0.167,0.17,0.15,0.159,0.151,0.804,0.818,0.768,0.815,0.585,0.66,0.55,0.671,0.582,0.476
PC-3 [JPC-3],0.705,0.797,,0.853,0.823,1.04,0.92,0.896,1.05,0.954,0.857,1.04,0.772,0.691,0.972,0.836,0.767,,0.844,0.911
EMC-BAC-2,0.43,0.467,,0.561,0.366,0.374,0.361,0.274,0.311,0.296,0.456,0.488,0.42,0.442,0.419,1.01,0.962,,1.02,0.942
LK-2,0.299,0.245,0.228,0.208,0.214,0.281,0.304,,0.262,0.277,0.21,0.195,0.175,0.331,0.274,0.273,0.272,0.274,0.371,0.295
NCI-H2126,0.709,0.726,0.594,0.509,0.73,0.642,0.578,0.476,0.506,0.384,0.895,0.775,0.801,0.478,0.731,0.54,0.541,0.543,0.578,0.578
NCI-H3122,0.997,0.906,0.975,0.975,0.592,0.737,0.824,0.877,0.983,0.563,1.29,1.15,1.17,1.06,1.01,0.405,0.476,0.332,0.48,0.362
NCI-H1975,0.723,0.644,0.748,0.767,0.653,0.416,0.313,0.351,0.277,0.366,0.733,0.756,0.795,0.664,0.594,0.378,0.363,0.426,0.406,0.404

Cell Line,relative viability (FG-4592 + Vorinostat; first compound 0.08 µM),relative viability (FG-4592 + Vorinostat; first compound 0.253 µM),relative viability (FG-4592 + Vorinostat; first compound 0.8 µM),relative viability (FG-4592 + Vorinostat; first compound 2.53 µM),relative viability (FG-4592 + Vorinostat; first compound 8 µM),relative viability (FG-4592 + Dasatinib; first compound 0.08 µM),relative viability (FG-4592 + Dasatinib; first compound 0.253 µM),relative viability (FG-4592 + Dasatinib; first compound 0.8 µM),relative viability (FG-4592 + Dasatinib; first compound 2.53 µM),relative viability (FG-4592 + Dasatinib; first compound 8 µM),relative viability (IU1-47 + Vorinostat; first compound 0.08 µM),relative viability (IU1-47 + Vorinostat; first compound 0.253 µM),relative viability (IU1-47 + Vorinostat; first compound 0.8 µM),relative viability (IU1-47 + Vorinostat; first compound 2.53 µM),relative viability (IU1-47 + Vorinostat; first compound 8 µM),relative viability (FG-4592 + Decitabine; first compound 0.08 µM),relative viability (FG-4592 + Decitabine; first compound 0.253 µM),relative viability (FG-4592 + Decitabine; first compound 0.8 µM),relative viability (FG-4592 + Decitabine; first compound 2.53 µM),relative viability (FG-4592 + Decitabine; first compound 8 µM)
NCI-H1944,0.479,0.571,0.461,0.512,0.561,0.251,0.207,0.177,0.199,0.202,0.567,0.59,0.593,0.5,0.524,0.422,0.446,0.415,0.436,0.388
LU99A,0.464,0.523,,0.506,0.423,0.535,0.371,0.402,0.561,0.58,0.557,0.513,0.5,0.579,0.426,0.842,0.796,,0.906,0.795
SW 1573,0.708,0.965,0.604,0.543,0.494,0.528,0.344,0.522,0.354,0.406,0.736,0.732,0.779,0.454,0.792,0.516,0.505,0.537,0.482,0.447
NCI-H2347,0.519,0.421,0.52,0.41,0.585,0.323,,0.263,0.284,0.279,0.668,0.628,0.662,0.444,0.528,0.665,0.523,0.629,0.581,0.613
NCI-H2009,0.823,0.694,0.88,0.671,0.727,0.323,0.172,0.267,0.283,0.27,0.761,0.783,0.72,0.656,0.668,0.406,0.339,0.381,0.343,0.349
HCC-15,0.975,0.796,0.776,0.82,0.829,0.65,0.601,0.536,0.554,0.681,0.885,0.894,0.946,0.766,0.731,0.677,0.585,0.606,0.661,0.765
HCC-44,1.03,1.05,1.2,1.16,1.11,,,,,,1.16,1.09,1.11,1.13,1.09,0.902,0.941,0.914,0.93,1
COR-L23,0.414,0.373,0.427,0.337,0.457,0.467,0.47,0.504,0.446,0.409,0.383,0.514,0.439,0.466,0.404,0.422,0.371,0.377,0.393,0.362
HCC-78,0.488,,0.434,0.376,0.523,0.472,0.333,0.379,0.386,0.32,0.557,0.432,0.463,0.397,0.438,0.666,,0.694,0.652,0.562
NCI-H727,1.07,1.17,1.28,1.33,1.21,0.375,0.473,0.326,0.49,0.41,1.26,1.38,1.21,1.13,1.11,0.889,0.663,1.15,0.9,0.84
NCI-H2087,0.695,0.453,0.565,,0.869,0.793,0.864,0.862,0.861,0.757,0.902,0.716,0.83,0.723,0.489,0.368,0.308,0.348,,0.256
NCI-H2228,0.592,0.408,0.77,0.583,0.449,0.569,0.411,0.548,0.475,0.489,0.577,0.6,0.725,0.692,0.563,,,,,
NCI-H1648,0.481,0.683,,0.349,0.708,,,,,,0.455,0.402,0.999,0.265,0.399,0.549,0.484,,0.416,0.635
NCI-H1563,,,,,,0.465,0.465,0.397,0.466,0.44,,,,,,,,,,
A549,,,,,,,,,,,,,,,,0.276,0.214,0.378,0.281,0.207
NCI-H1623,,,,,,0.505,0.555,0.446,0.486,0.468,,,,,,,,,,
IA-LM,0.826,0.83,0.814,0.943,1.04,,,,,,0.951,1.13,1.11,0.444,1.06,,,,,
CAL-12T,0.624,0.583,0.651,0.585,0.496,0.378,0.424,0.406,0.361,0.365,0.826,0.759,0.711,0.747,0.841,,,,,
